Measurements taken from the supplement of paper PMC10627819.

Columns and labels:
S. aureus Newman [1] = test: fitness (endpoint OD595 vs no drug) (fraction); higher = more growth
Procedure, shortened: (§1)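 At 37 °C, bacteria in TSB, LB Lennox or CY were grown in 384-well plates from a starting OD595 of 0.01. OD595 was measured every 30 min for 14 h, with the first reading used as background. Fitness is the optical density at the switch to stationary phase as a fraction of the robust mean of no-drug control wells, capped at 1.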

S. pneumoniae D39V [2] = test: as above
Procedure, shortened: as §1

B. subtilis 168 [3] = test: as above; details: one replicate
Procedure, shortened: as §1

S. aureus DSM 20231 [4] = test: as above
Procedure, shortened: as §1

S. aureus Newman [5] = test: Bliss interaction score (quartile over a dose matrix) (fitness difference); higher = more antagonism (negative = synergy)
Procedure, shortened: (§2)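 The Bliss score is observed minus expected fitness, where expected fitness is the product of the single-drug fitness values inferred from the combination data. Fitness is the OD595 at the onset of stationary phase over the plate's robust no-drug mean, capped at 1. Scores are summarised by quartiles over technical, biological and donor/recipient replicates.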

S. pneumoniae D39V [6] = test: as above
Procedure, shortened: as §2

B. subtilis 168 [7] = test: as above
Procedure, shortened: as §2

S. aureus DSM 20231 [8] = test: as above
Procedure, shortened: as §2
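Throughout, for Bliss interaction score (quartile over a dose matrix): first quartile when negative (synergy) and third quartile when positive (antagonism).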
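Throughout, for fitness (endpoint OD595 vs no drug): OD595 on entry to stationary phase over no-drug wells; at most 1.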

CCC[C@@H]1C[C@@H](C(=O)N[C@@H]([C@H]2O[C@H](SC)[C@H](O)[C@@H](O)[C@H]2O)[C@H](C)Cl)N(C)C1 [Clindamycin] + CN(N=O)C(=O)N[C@@H](C=O)[C@@H](O)[C@H](O)[C@H](O)CO [Streptozotocin]
fitness
Details	partner 0.15 µg/mL	partner 0.3 µg/mL	partner 0.6 µg/mL	partner 1.2 µg/mL	partner 2.4 µg/mL	partner 4.8 µg/mL
B. subtilis 168 [3], first compound 0.0039 µg/mL	1	≥ 1	≥ 1	–	–	–
B. subtilis 168 [3], first compound 0.0078 µg/mL	0.954	0.857	0.915	–	–	–
B. subtilis 168 [3], first compound 0.0156 µg/mL	0.951	0.894	0.89	–	–	–
B. subtilis 168 [3], first compound 0.0625 µg/mL	0.545	0.504	0.521	–	–	–
B. subtilis 168 [3], first compound 0.125 µg/mL	0.41	0.383	0.374	–	–	–
B. subtilis 168 [3], first compound 0.25 µg/mL	0.378	0.366	0.365	–	–	–
S. aureus DSM 20231 [4], first compound 0.0625 µg/mL	0.0812	0.0698	0.0805	–	–	–
S. aureus DSM 20231 [4], first compound 0.125 µg/mL	0.0369	0.0299	0.0239	–	–	–
S. aureus Newman [1], first compound 0.0312 µg/mL	0.608	0.612	0.475	–	–	–
S. aureus Newman [1], first compound 0.0625 µg/mL	0.329	0.336	0.243	–	–	–
S. aureus Newman [1], first compound 0.125 µg/mL	0.0373	0.0413	0.0299	–	–	–
S. pneumoniae D39V [2], first compound 0.0125 µg/mL	–	–	–	0.661	0.682	0.688
S. pneumoniae D39V [2], first compound 0.025 µg/mL	–	–	–	0.413	0.439	0.445
S. pneumoniae D39V [2], first compound 0.05 µg/mL	–	–	–	0.175	0.207	0.196

fitness, S. pneumoniae D39V [2], one replicate
Details	first compound 0.015 µg/mL	first compound 0.03 µg/mL	first compound 0.06 µg/mL
partner 1.2 µg/mL	0.817	0.702	0.595
partner 2.4 µg/mL	0.908	0.79	0.666
partner 4.8 µg/mL	0.909	0.71	0.554

Details	Bliss interaction score
B. subtilis 168 [7]	0.0373
S. aureus DSM 20231 [8]	-0.0342
S. aureus Newman [5]	0.0448
S. pneumoniae D39V [6]	-0.0563
